Laboratory results published in BigSolDB 2.1.

Compound: NC(N)=S
- solubility (mole fraction) (in ethanol, 283.15 K): 0.0185
- solubility (mole fraction) (in ethanol, 288.15 K): 0.0206
- solubility (mole fraction) (in ethanol, 293.15 K): 0.0222
- solubility (mole fraction) (in ethanol, 298.15 K): 0.025
- solubility (mole fraction) (in ethanol, 303.15 K): 0.027
- solubility (mole fraction) (in ethanol, 308.15 K): 0.0315
- solubility (mole fraction) (in ethanol, 313.15 K): 0.0348
- solubility (mole fraction) (in methanol, 283.15 K): 0.0421
- solubility (mole fraction) (in methanol, 288.15 K): 0.046
- solubility (mole fraction) (in methanol, 293.15 K): 0.0501
- solubility (mole fraction) (in methanol, 298.15 K): 0.054
- solubility (mole fraction) (in methanol, 303.15 K): 0.061
- solubility (mole fraction) (in methanol, 308.15 K): 0.065
- solubility (mole fraction) (in methanol, 313.15 K): 0.0744
- solubility (mole fraction) (in n-propanol, 283.15 K): 0.0185
- solubility (mole fraction) (in n-propanol, 288.15 K): 0.0206
- solubility (mole fraction) (in n-propanol, 293.15 K): 0.0222
- solubility (mole fraction) (in n-propanol, 298.15 K): 0.025
- solubility (mole fraction) (in n-propanol, 303.15 K): 0.027
- solubility (mole fraction) (in n-propanol, 308.15 K): 0.0315
- solubility (mole fraction) (in n-propanol, 313.15 K): 0.0348
